From patent US20060058346A1, “Novel enantiomers of etrahydroisoquinoline derivatives and theirpharmaceutically acceptable salts, their preparations and pharmaceutical compositions” (priority 2002, published 2006)
Like-named read-outs stand apart in the source and are kept apart here.

Key:
left auricle muscle = experiment: Contractile force of left auricle muscle excised from rats; set-up: species or system rat; conditions: vehicle control:100%
Description: (§1) Immediately after Sprague-Dawley rats (female or male) were anaesthetized with pentobarbital sodium (50 mg/kg, i.m.), the thorax was opened to excise the heart. The heart was submerged in Krebs solution, and left auricle muscle and right auricle muscle were then isolated. The left auricle muscle was placed in an organ bath for recording of contractile force, and applied with electrical field stimulation (voltage 10% higher than threshold voltage, 1 Hz frequency, 5 ms duration). In the case of right auricle muscle, which contracts spontaneously, the number of continuous beats was recorded. In this experiment, to measure contractile fore of the two auricle muscles, the organ bath was warmed to 37° C., and as a physiological solution, Krebs solution (119.8 mM NaCl, 4.6 mM KCl, 2.5 mM CaCl2, 1.2 mM MgCl2, 25 mM NaHCO3, 1.2 mM KH2PO4, 10 mM glucose, 1 mM EDTA, pH 7.4) was used. The Krebs solution (pH 7.4) was continuously saturated with a gas mixture of 95% O2 and 5% CO2. The auricle muscle was under a tension of 1 g, and Krebs solution was exchanged with fresh solution at intervals of 20 minutes while equilibrium was maintained during a recording period of 60 minutes.

right auricle muscle = experiment: Heart rates (beats) of right auricle muscle excised from rats; set-up: species or system rat; conditions: vehicle control:100%
Description: as §1

Rat Thoracic Aortas = experiment: Relaxation of rat thoracic aortas contracted by phenylephrine; conditions: 0.1 μM phenylephrine contraction
Description: Experimental group was divided into two groups, group containing endothelial cells of blood vessel and group not containing. Blood vessel of thoracic aortas was induced to contract by treatment with 0.1 μM of phenyleprine under tension of 1 g. Upon arriving at equilibrium, the enantiomers were added to an organ bath in a cumulative manner. Relaxation of thoracic aortas was recorded using a physiograph (Grass P7), calculating their response to the compounds with consideration of their added amount.

[1] = tested on: RAW 264.7 macrophage cells; experiment: Nitric oxide production in macrophage cell stimulated by LPS (Griess); assay type: cell-based; conditions: LPS 1 μg/ml
Description: RAW 264.7 macrophage cells were plated on 100 mm culture dishes at a density of 1-2×10^5 cells. Thereafter, the said macrophage cell was incubated in DMEM medium containing 10% fetal calf serum (heat-inactivated), 100 U/ml penicillin, and […] streptomycin in a CO2 incubator. The said macrophage cell was incubated therein confluently. The said incubated macrophage cells were transferred to serum-free DMEM medium, and further incubated therein for about 24 hours. Thereafter, macrophage cells were stimulated with LPS (1 μg/ml) for about 8 hours. (In this progress, experimental group was divided into two groups, group to which the compound was administered, and group to which the compound was not.) Then, nitrite quantification was achieved by performing calorimetric reaction for produced nitrite with Griess reagent and then measuring absorbance at 550 nm, while using NaNO2 as a standard.

LPS-injected rat [2] = experiment: Serum/plasma level of nitrate/nitrite (NOx) in LPS-injected rat; assay type: in vivo; conditions: 10 mg/kg compound; LPS 20 mg/kg
Description: The rats were divided into three groups; (1) LPS-injected group (LPS was administered to abdominal cavity in an amount of 20 mg/kg), (2) enantiomer-injected group (LPS+the compounds represented by formula 3 to 8 was administered to abdominal cavity) or (3) saline solution-injected group. After administration of LPS, the rats were anaesthetized with pentobarbital. The blood was collected from rats by using heart punching. The plasma level of nitrite was measured by using the nitrate reductase derived from Aspergillus species, where the nitrate was reduced by enzyme. Particularly, the plasma was diluted with distilled water in a ratio of 1:10. Analysis buffering solution (KH2PO4 50 Mm, NADPH 0.6 Mm, FAD 5 Mm and nitrate reductase 10 U/ml, Ph 5.5) was added to the said plasma. Thereafter, the reaction was accomplished at 37° C. for 30 min. The plasma level of nitrite was measured by using sodium nitrite as a standard, and Griess solution. Standard curve to nitrite was calculated from the result derived from incubation in analysis buffering solution.

Sprague-Dawley rats = experiment: Acute toxicity in rat (LD50); assay type: in vivo; conditions: for LD50, Intraperitioneal injection: single intraperitoneal injection; for LD50, Intravenous injection: single intravenous injection
Description: (§2) Sprague-Dawley rats (six weeks) were used as test sample. Each group was comprised of two rats. […] The said emulsion was administered to two rats one times using intravenous injection and intraperitoneal injection.

rat PRP = conditions: epinephrine; from Yun-Choi et al. 2001; read-out: IC50 platelet aggregation, epinephrine, racemic mixture; cited from earlier work
LPS-injected rat [3] = conditions: from Kang et al. 1999; cited from earlier work
[4] = Acute toxicity in rat (LD50); assay type: in vivo; conditions: Sprague-Dawley, in vivo
Description: as §2

[5] = group containing endothelial cells, read-out: IC50 (E+), concentration showing relaxation response of 50%
[6] = group not containing endothelial cells, read-out: IC50 (E−), concentration showing relaxation response of 50%

Compound	Contractile Force of Auricle Muscles (left auricle muscle; 1 × 10^−4 M) [%]	Contractile Force of Auricle Muscles (left auricle muscle; 1 × 10^−5 M) [%]	Contractile Force of Auricle Muscles (left auricle muscle; 1 × 10^−6 M) [%]	Contractile Force of Auricle Muscles (left auricle muscle; 1 × 10^−7 M) [%]	Contractile Force of Auricle Muscles (left auricle muscle; 3 × 10^−5 M) [%]	Contractile Force of Auricle Muscles (left auricle muscle; 3 × 10^−6 M) [%]	Contractile Force of Auricle Muscles (left auricle muscle; 3 × 10^−7 M) [%]	Heart Rates of Auricle Muscles (right auricle muscle; 1 × 10^−4 M) [%]	Heart Rates of Auricle Muscles (right auricle muscle; 1 × 10^−5 M) [%]	Heart Rates of Auricle Muscles (right auricle muscle; 1 × 10^−6 M) [%]	Heart Rates of Auricle Muscles (right auricle muscle; 1 × 10^−7 M) [%]	Heart Rates of Auricle Muscles (right auricle muscle; 3 × 10^−5 M) [%]	Heart Rates of Auricle Muscles (right auricle muscle; 3 × 10^−6 M) [%]	Heart Rates of Auricle Muscles (right auricle muscle; 3 × 10^−7 M) [%]	IC50 (Rat Thoracic Aortas; [5]) [µM]	IC50 (Rat Thoracic Aortas; [6]) [µM]	NO production by LPS in macrophage cell ([1]; compound 10 μM) [µM]	NO production by LPS in macrophage cell ([1]; compound 50 μM) [µM]	NO production by LPS in macrophage cell ([1]; compound 100 μM) [µM]	IC50 (rat PRP) [µM]	further results
Oc1ccc(CC2NCCc3cc(O)c(O)cc32)cc1 (racemic) [Racemic mixture of formula 3 and formula 4, higenamine, reference compound]	300	260	180	115	280	240	130	200	140	115	110	160	125	110	9.81	5.61	21.3	14.3	15.2	7.2	plasma level of NOx (LPS-injected rat [2]): 75 ± 4 µM; LD50, Intraperitioneal injection (Sprague-Dawley rats): 280 mg/kg; LD50, Intravenous injection (Sprague-Dawley rats): 98 mg/kg; survival, racemic mixture (LPS-injected rat [3]): 80%
Oc1cc2c(cc1O)C(Cc1cccc3ccccc13)NCC2 (racemic) [Racemic mixture of formula 5 and formula 6, 1-α-naphthylmethyl-6,7-dihydroxy-1,2,3,4-tetrahydroisoquioline, reference compound]	490	400	310	140	430	360	200	135	130	120	115	130	120	115	0.105	6.41	31	28	26	1.7	LD50, Intraperitioneal injection (Sprague-Dawley rats): 242 mg/kg; LD50, Intravenous injection (Sprague-Dawley rats): 92 mg/kg; survival, racemic mixture (LPS-injected rat [3]): 90%
Oc1cc2c(cc1O)C(Cc1ccc3ccccc3c1)NCC2 (racemic) [Racemic mixture of formula 7 and formula 8, 1-β-naphthylmethyl-6,7-dihydroxy-1,2,3,4-tetrahydroisoquinoline, reference compound]	310	250	180	110	270	220	140	140	140	125	110	140	135	120			45	40	39	6.3	IC50 (Rat Thoracic Aortas; Rattus norvegicus, Endothelial cell, group containing endothelial cells, read-out: IC50 (E+), concentration showing relaxation response of 50%): 8.75 µM; IC50 (Rat Thoracic Aortas; Rattus norvegicus, Endothelial cell, group not containing endothelial cells, read-out: IC50 (E−), concentration showing relaxation response of 50%): 51.5 µM; LD50 ([4]; ip, single intraperitoneal injection, read-out: LD50, Intraperitioneal injection): 220 mg/kg; LD50 ([4]; single intravenous injection, read-out: LD50, Intravenous injection): 84 mg/kg
